According to publication PMC12030314, “Biomarker-Driven Pharmacokinetics and Efficacy of Polymyxin B in Critically Ill Patients with XDR-GN Pneumonia” (Pharmaceuticals, 2025):
Where a SMILES comes first, the peptide text is derived from it. Bridges are numbered along the chain shown (N, C = ends). [ ]: non-standard residue; d: D form. The star is where a group is joined. X1 = CC[C@H](C)CCCCC(=O)*; Dab = NCC[C@H](N)C(=O)O

Tested on: XDR-GN bacterial nosocomial pneumonia
Experiment: Clinical efficacy (treatment success) of PMB
Format: in vivo, human
Details: 27 enrolled patients; iv 100 mg loading, 50 mg q12h
From the text: The decision to administer PMB was made by the attending physicians. Patients with conditions that could alter the PK of PMB, who had rapidly declining or fluctuating renal function (serum creatinine ± 50% since the start of therapy, who could affect the removal of drugs from the body), who were pregnant (hormone levels, increased blood volume, and other factors affecting drug processes), who had severe burns/head/spinal cord injury (high metabolic status, fluid redistribution, reduced plasma protein levels, and other factors affecting drug processes), who had cystic fibrosis (decreased distribution of PMB in lungs), or who were severely under- or overweight (±40% of ideal body weight, changes of fat volume, and body surface area affecting drug processes) were excluded. The study was approved by the Ethics Committees of Peking Union Medical College Hospital and the Declaration of Helsinki. Written informed consent was obtained from all patients or their legal representatives.
The primary PD response was evaluated by PK/PD indices. […] The secondary PD response was evaluated by clinical parameters. […] The percentage of patients who achieved the PK/PD targets or treatment success was calculated. Variables potentially related to clinical efficacy were assessed. […] The optimal cutoff point for the PK/PD indices was calculated with the Youden index.

## CC[C@H](C)CCCCC(=O)N[C@@H](CCN)C(=O)N[C@H](C(=O)N[C@@H](CCN)C(=O)N[C@H]1CCNC(=O)[C@H]([C@@H](C)O)NC(=O)[C@H](CCN)NC(=O)[C@H](CCN)NC(=O)[C@H](CC(C)C)NC(=O)[C@@H](Cc2ccccc2)NC(=O)[C@H](CCN)NC1=O)[C@@H](C)O [PMB, polymyxin B] (X1-[Dab]T[Dab][Dab][Dab][dF]L[Dab][Dab]T; lactam 4-C)
  treatment success (response rate): 81.48%
